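Each compound was tested at five concentrations against cells in 96-well plates for 48 hours. TGI: total growth inhibition.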
Experiments:
Assay in all cases: NCI tumour cell line growth inhibition, 48 h
786-0 renal = test system: 786-0 renal
A498 renal = test system: A498 renal
A549 NSCLC = test system: A549 NSCLC
ACHN renal = test system: ACHN renal
BT-549 breast = test system: BT-549 breast
CAKI-1 renal = test system: CAKI-1 renal
CCRF-CEM leukemia = test system: CCRF-CEM leukemia
COLO 205 colon = test system: COLO 205 colon
DU-145 prostate = test system: DU-145 prostate
EKVX NSCLC = test system: EKVX NSCLC
HCC-2998 colon = test system: HCC-2998 colon
HCT-116 colon = test system: HCT-116 colon
HCT-15 colon = test system: HCT-15 colon
HL-60(TB) leukemia = test system: HL-60(TB) leukemia
HOP-62 NSCLC = test system: HOP-62 NSCLC
HOP-92 NSCLC = test system: HOP-92 NSCLC
HS 578T breast = test system: HS 578T breast
HT29 colon = test system: HT29 colon
IGROV1 ovarian = test system: IGROV1 ovarian
K-562 leukemia = test system: K-562 leukemia
KM12 colon = test system: KM12 colon
LOX IMVI melanoma = test system: LOX IMVI melanoma
M14 melanoma = test system: M14 melanoma
MALME-3M melanoma = test system: MALME-3M melanoma
MCF7 breast = test system: MCF7 breast
MDA-MB-231 breast = test system: MDA-MB-231 breast
MDA-MB-435 = test system: MDA-MB-435
MDA-N = test system: MDA-N
MOLT-4 leukemia = test system: MOLT-4 leukemia
NCI-H226 lung = test system: NCI-H226 lung
NCI-H23 lung = test system: NCI-H23 lung
NCI-H460 lung = test system: NCI-H460 lung
NCI-H522 lung = test system: NCI-H522 lung
NCI/ADR-RES ovarian = test system: NCI/ADR-RES ovarian
OVCAR-3 ovarian = test system: OVCAR-3 ovarian
OVCAR-4 ovarian = test system: OVCAR-4 ovarian
OVCAR-5 ovarian = test system: OVCAR-5 ovarian
OVCAR-8 ovarian = test system: OVCAR-8 ovarian
PC-3 prostate = test system: PC-3 prostate
RPMI-8226 leukemia = test system: RPMI-8226 leukemia
RXF 393 renal = test system: RXF 393 renal
SF-268 CNS = test system: SF-268 CNS
SF-295 CNS = test system: SF-295 CNS
SF-539 CNS = test system: SF-539 CNS
SK-MEL-2 melanoma = test system: SK-MEL-2 melanoma
SK-MEL-28 melanoma = test system: SK-MEL-28 melanoma
SK-MEL-5 melanoma = test system: SK-MEL-5 melanoma
SK-OV-3 ovarian = test system: SK-OV-3 ovarian
SN12C renal = test system: SN12C renal
SNB-19 CNS = test system: SNB-19 CNS
SNB-75 CNS = test system: SNB-75 CNS
SR leukemia = test system: SR leukemia
SW-620 colon = test system: SW-620 colon
T-47D breast = test system: T-47D breast
TK-10 renal = test system: TK-10 renal
U251 CNS = test system: U251 CNS
UACC-257 melanoma = test system: UACC-257 melanoma
UACC-62 melanoma = test system: UACC-62 melanoma
UO-31 renal = test system: UO-31 renal

CSC1(SC2=NCCN2)SC2(NCCN2)S1
TGI (786-0 renal): 14.2 µM | TGI (A498 renal): 27.9 µM | TGI (A549 NSCLC): 40.1 µM | TGI (ACHN renal): 33.2 µM | TGI (BT-549 breast): 54.9 µM | TGI (CAKI-1 renal): 27 µM | TGI (CCRF-CEM leukemia): 26.1 µM | TGI (COLO 205 colon): 40.5 µM | TGI (DU-145 prostate): 28.2 µM | TGI (EKVX NSCLC): 40.5 µM | TGI (HCC-2998 colon): 29.8 µM | TGI (HCT-116 colon): 31.7 µM | TGI (HCT-15 colon): 41.2 µM | TGI (HL-60(TB) leukemia): 55.9 µM | TGI (HOP-62 NSCLC): 34.4 µM | TGI (HOP-92 NSCLC): 28.4 µM | TGI (HS 578T breast): 69.1 µM | TGI (HT29 colon): 38.3 µM | TGI (IGROV1 ovarian): 35.7 µM | TGI (K-562 leukemia): 81.2 µM | TGI (KM12 colon): 5.37 µM | TGI (LOX IMVI melanoma): 25.7 µM | TGI (M14 melanoma): 44.3 µM | TGI (MALME-3M melanoma): 34.3 µM | TGI (MCF7 breast): 12.8 µM | TGI (MDA-MB-231 breast): 38.6 µM | TGI (MDA-MB-435): 31.3 µM | TGI (MDA-N): 49.1 µM | TGI (MOLT-4 leukemia): 52.9 µM | TGI (NCI-H226 lung): 56.7 µM | TGI (NCI-H23 lung): 33.4 µM | TGI (NCI-H460 lung): 45.4 µM | TGI (NCI-H522 lung): 27.1 µM | TGI (NCI/ADR-RES ovarian): > 91.6 µM | TGI (OVCAR-3 ovarian): 30.6 µM | TGI (OVCAR-4 ovarian): 44.6 µM | TGI (OVCAR-5 ovarian): 39.6 µM | TGI (OVCAR-8 ovarian): 43 µM | TGI (PC-3 prostate): 34.3 µM | TGI (RPMI-8226 leukemia): 13.4 µM | TGI (RXF 393 renal): 20.4 µM | TGI (SF-268 CNS): 40.3 µM | TGI (SF-295 CNS): 67.6 µM | TGI (SF-539 CNS): 56.5 µM | TGI (SK-MEL-2 melanoma): 39.4 µM | TGI (SK-MEL-28 melanoma): 40.1 µM | TGI (SK-MEL-5 melanoma): 35 µM | TGI (SK-OV-3 ovarian): 42 µM | TGI (SN12C renal): 41.4 µM | TGI (SNB-19 CNS): 41.9 µM | TGI (SNB-75 CNS): 32.2 µM | TGI (SR leukemia): 37.7 µM | TGI (SW-620 colon): 51.6 µM | TGI (T-47D breast): 5.91 µM | TGI (TK-10 renal): 18.6 µM | TGI (U251 CNS): 32.8 µM | TGI (UACC-257 melanoma): 46.6 µM | TGI (UACC-62 melanoma): 32.7 µM | TGI (UO-31 renal): 32.2 µM

c1ccc2c(c1)nc1n2C2CCC(C2)N1 (stereo unspecified)
TGI (786-0 renal): > 10 µM | TGI (A498 renal): > 10 µM | TGI (A549 NSCLC): > 10 µM | TGI (BT-549 breast): > 10 µM | TGI (CAKI-1 renal): > 10 µM | TGI (CCRF-CEM leukemia): > 10 µM | TGI (COLO 205 colon): > 10 µM | TGI (DU-145 prostate): > 10 µM | TGI (EKVX NSCLC): > 10 µM | TGI (HCC-2998 colon): > 10 µM | TGI (HCT-116 colon): > 10 µM | TGI (HCT-15 colon): > 10 µM | TGI (HL-60(TB) leukemia): > 10 µM | TGI (HOP-62 NSCLC): > 10 µM | TGI (HOP-92 NSCLC): > 10 µM | TGI (HS 578T breast): > 10 µM | TGI (HT29 colon): > 10 µM | TGI (IGROV1 ovarian): > 10 µM | TGI (K-562 leukemia): > 10 µM | TGI (LOX IMVI melanoma): > 10 µM | TGI (M14 melanoma): > 10 µM | TGI (MALME-3M melanoma): > 10 µM | TGI (MCF7 breast): > 10 µM | TGI (MDA-MB-231 breast): > 10 µM | TGI (MDA-MB-435): > 10 µM | TGI (MDA-N): > 10 µM | TGI (MOLT-4 leukemia): > 10 µM | TGI (NCI-H226 lung): > 10 µM | TGI (NCI-H23 lung): > 10 µM | TGI (NCI-H460 lung): > 10 µM | TGI (NCI-H522 lung): > 10 µM | TGI (NCI/ADR-RES ovarian): > 10 µM | TGI (OVCAR-3 ovarian): > 10 µM | TGI (OVCAR-4 ovarian): > 10 µM | TGI (OVCAR-5 ovarian): > 10 µM | TGI (OVCAR-8 ovarian): > 10 µM | TGI (PC-3 prostate): > 10 µM | TGI (RPMI-8226 leukemia): > 10 µM | TGI (RXF 393 renal): > 10 µM | TGI (SF-268 CNS): > 10 µM | TGI (SF-295 CNS): > 10 µM | TGI (SF-539 CNS): > 10 µM | TGI (SK-MEL-2 melanoma): > 10 µM | TGI (SK-MEL-28 melanoma): > 10 µM | TGI (SK-MEL-5 melanoma): > 10 µM | TGI (SK-OV-3 ovarian): > 10 µM | TGI (SN12C renal): > 10 µM | TGI (SNB-19 CNS): > 10 µM | TGI (SNB-75 CNS): > 10 µM | TGI (SR leukemia): > 10 µM | TGI (SW-620 colon): > 10 µM | TGI (T-47D breast): > 10 µM | TGI (TK-10 renal): > 10 µM | TGI (U251 CNS): > 10 µM | TGI (UACC-257 melanoma): > 10 µM | TGI (UACC-62 melanoma): > 10 µM | TGI (UO-31 renal): > 10 µM

Reference: PubChem BioAssay (NCI)
